Experimental data as given in PubChem BioAssay AID328 (DTP/NCI, 2004).
Values joined by “and” are separate entries in the source; they are usually repeats but may differ in a detail not shown here. Equal entries are not always repeated. Inconclusive results and toxic doses are left out.

Test system: BDF1 mice, P388 leukemia ip, median survival T/C
Assay: NCI In Vivo Anticancer Drug Screen. Data for tumor model P388 Leukemia (intraperitoneal) in B6D2F1 (BDF1) mice
Settings: endpoint: median survival time, higher = longer survival
Outline: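 Vehicle-dosed animals serve as the reference; survival of compound-dosed, tumour-implanted mice is divided by it.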

With CC(CN1CC(=O)NC(=O)C1)N1CC(=O)NC(=O)C1 (centres undefined) the T/C (dose: 3.12 mg/kg/injection, schedule: Q03HX024 (ip), vehicle: steriod suspending solution) was 200 % of control, the T/C (dose: 3.75 mg/kg/injection, schedule: Q01DX010 (oral), vehicle: saline with Tween-80) was 109 % of control and the T/C (dose: 6.25 mg/kg/injection, schedule: Q03HX024 (ip), vehicle: steriod suspending solution) was 205 % of control. For the same compound, the T/C (dose: 10.0 mg/kg/injection, schedule: Q04DX003 (ip), vehicle: Klucel (hydroxypropylcellulose) (HPC)) was 117 % of control, the T/C (dose: 12.5 mg/kg/injection, schedule: Q01DX009 (ip), vehicle: steriod suspending solution) was 100 % of control and the T/C (dose: 12.5 mg/kg/injection, schedule: Q03HX024 (ip), vehicle: steriod suspending solution) was 258 % of control. For the same compound, the T/C (dose: 15.0 mg/kg/injection, schedule: Q01DX010 (oral), vehicle: saline with Tween-80) was 154 % of control, the T/C (dose: 25.0 mg/kg/injection, schedule: Q03HX024 (ip), vehicle: steriod suspending solution) was 211 % of control and the T/C (dose: 30.0 mg/kg/injection, schedule: Q01DX010 (ip), vehicle: saline) was 186 % of control. The T/C (dose: 50.0 mg/kg/injection, schedule: Q01DX009 (ip), vehicle: steriod suspending solution) was 164 % of control, the T/C (dose: 50.0 mg/kg/injection, schedule: Q04DX002 (ip), vehicle: Klucel (hydroxypropylcellulose) (HPC)) was 111 % of control and the T/C (dose: 60.0 mg/kg/injection, schedule: Q01DX010 (ip), vehicle: saline) was 181 % of control. The T/C (dose: 100.0 mg/kg/injection, schedule: Q01DX001 (ip), vehicle: steriod suspending solution) was 111 % of control, the T/C (dose: 100.0 mg/kg/injection, schedule: Q01DX009 (ip), vehicle: steriod suspending solution) was 111 % of control and the T/C (dose: 100.0 mg/kg/injection, schedule: Q04DX002 (ip), vehicle: Klucel (hydroxypropylcellulose) (HPC)) was 108 % of control. The T/C (dose: 100.0 mg/kg/injection, schedule: Q04DX003 (ip), vehicle: steriod suspending solution) was 176 % of control, the T/C (dose: 108.0 mg/kg/injection, schedule: Q04DX003 (ip), vehicle: Klucel (hydroxypropylcellulose) (HPC)) was 231 % of control and the T/C (dose: 120.0 mg/kg/injection, schedule: Q01DX010 (ip), vehicle: saline) was 113 % of control. For the same compound, the T/C (dose: 144.0 mg/kg/injection, schedule: Q04DX003 (ip), vehicle: Klucel (hydroxypropylcellulose) (HPC)) was 203 % of control, the T/C (dose: 180.0 mg/kg/injection, schedule: Q04DX003 (ip), vehicle: Klucel (hydroxypropylcellulose) (HPC)) was 287 % of control and the T/C (dose: 180.0 mg/kg/injection, schedule: Q04DX003 (ip), vehicle: alkali diluted with saline) was 196 % of control. For the same compound, the T/C (dose: 200.0 mg/kg/injection, schedule: Q04DX002 (ip), vehicle: Klucel (hydroxypropylcellulose) (HPC)) was 161 % of control, the T/C (dose: 200.0 mg/kg/injection, schedule: Q04DX003 (ip), vehicle: Klucel (hydroxypropylcellulose) (HPC)) was 100 % of control and 153 % of control and 215 % of control and the T/C (dose: 200.0 mg/kg/injection, schedule: Q04DX003 (ip), vehicle: steriod suspending solution) was 194 % of control. For the same compound, the T/C (dose: 216.0 mg/kg/injection, schedule: Q04DX003 (ip), vehicle: Klucel (hydroxypropylcellulose) (HPC)) was 212 % of control, the T/C (dose: 240.0 mg/kg/injection, schedule: Q04DX003 (ip), vehicle: Klucel (hydroxypropylcellulose) (HPC)) was 245 % of control and the T/C (dose: 300.0 mg/kg/injection, schedule: Q04DX003 (ip), vehicle: alkali diluted with saline) was 252 % of control. For the same compound, the T/C (dose: 400.0 mg/kg/injection, schedule: Q01DX001 (ip), vehicle: steriod suspending solution) was 152 % of control, the T/C (dose: 400.0 mg/kg/injection, schedule: Q04DX002 (ip), vehicle: Klucel (hydroxypropylcellulose) (HPC)) was 193 % of control and 199 % of control and the T/C (dose: 400.0 mg/kg/injection, schedule: Q04DX003 (ip), vehicle: steriod suspending solution) was 176 % of control. For the same compound, the T/C (dose: 500.0 mg/kg/injection, schedule: Q04DX003 (ip), vehicle: Klucel (hydroxypropylcellulose) (HPC)) was 91 % of control and 96 % of control, the T/C (dose: 500.0 mg/kg/injection, schedule: Q04DX003 (ip), vehicle: alkali diluted with saline) was 93 % of control and the T/C (dose: 800.0 mg/kg/injection, schedule: Q01DX001 (ip), vehicle: steriod suspending solution) was 94 % of control. For the same compound, the T/C (dose: 800.0 mg/kg/injection, schedule: Q04DX003 (ip), vehicle: steriod suspending solution) was 111 % of control.
